# Earlier results, collected in article PMC9370779, “Traditional Medicinal Uses, Phytochemistry, Biological Properties, and Health Applications of Vitex sp” (Plants, 2022).
# Entries after “also recorded” stand apart in the source; their conditions may differ. Read-outs that look alike come from different tables or passages of the source.
# Assays:
# [1] = tested on: lipopolysaccharide-induced nitric oxide (NO) production; parameters: method as in doi:10.1002/hlca.201600022
# [2] = read-out: antioxidant effects, IC50 value
# Topoisomerase-1 (Top1) = tested on: Topoisomerase-1 (Top1); parameters: method as in PMID 28602939
# HCT 116 cells = tested on: HCT 116 cells; parameters: method as in PMID 28602939
# [3] = parameters: method as in PMID 28602939; conditions: cell line not stated
# [4] = parameters: method as in PMID 29343985; conditions: mice, acetic acid abdomen constriction
# [5] = parameters: method as in PMID 29343985; conditions: mice, carrageenan paw oedema
# [6] = parameters: method as in PMID 27118321; conditions: ABTS stated for 131
# [7] = tested on: LPS-induced NO production in murine microglia (BV-2) cells; parameters: method as in PMID 27118321
# [8] = tested on: NADP(H); quinone oxireductase type1 (QR1); parameters: method as in PMID 23662135
# Musca = tested on: Musca; parameters: method as in PMID 12444704
# [9] = tested on: human nasopharyngeal carcinoma (CNE1) cell line; parameters: method as in PMID 28453270; conditions: read-out: cytotoxic activity against CNE1, IC50 value
# [10] = tested on: nuclear factor-kappa B (NF-κB) pathway in human embryonic kidney (HEK 293) cells; parameters: method as in PMID 29996686; conditions: TNF-α-induced
# [11] = tested on: interleukin 1-beta (IL-1β); parameters: method as in PMID 31302252
# NF-κB signal pathways = tested on: NF-κB signal pathways; parameters: method as in PMID 31302252
# [12] = tested on: inducible nitric oxide synthase (iNOS); parameters: method as in PMID 31302252
# COX-2 = tested on: COX-2; parameters: method as in PMID 31302252
# [13] = tested on: LPS-induced NO production; parameters: method as in PMID 31302252
# IL-6 = tested on: IL-6; parameters: method as in PMID 31302252
# NO production = tested on: NO production; parameters: method as in PMID 27535293; conditions: up to a concentration of 100 µM
# [14] = tested on: hepatocyte-derived carcinoma (HuH-7) cells; parameters: method as in PMID 18595136
# [15] = tested on: human liver carcinoma (HepG2) cell lines; parameters: method as in PMID 27118321
# Musca domestica larvae = tested on: Musca domestica larvae; parameters: method as in doi:10.1016/S0031-9422(00)94985-9
# [16] = parameters: method as in PMID 10579867
# [17] = tested on: NO production in LPS-induced murine macrophage (RAW 264.7) cells; parameters: method as in PMID 29429059; conditions: LPS-induced RAW 264.7 macrophages, up to 100 μM
# [18] = parameters: method as in PMID 24965780
structure (smiles),measurement,setting,value
"O=C(OCC1=CC(=O)C2C=CO[C@@H](O[C@@H]3O[C@H](CO)[C@@H](O)[C@H](O)[C@H]3O)C12)c1ccc(O)cc1 (some centres unmarked) [Compound 18, agnusoside]","anti-inflammatory activity, LPS-induced NO production",[1],moderate anti-inflammatory activity; also recorded: Exhibited moderate anti-inflammatory activity using NO production induced by lipopolysaccharide
"C[C@@H]1CC[C@@H]2C(C(=O)O)=CO[C@@H](O[C@@H]3O[C@H](COC(=O)c4ccc(O)cc4)[C@@H](O)[C@H](O)[C@H]3O)[C@H]12 [Compound 20, vitexnegheteroin L]",inhibitory effects on α-glucosidase,α-glucosidase,moderate inhibitory effects
same,IC50,[2],> 20 µM
C=CC(C)(O)CCC1(C)C2=C(CC(OCC)C1C)C(C)(C)CCC2 (centres unmarked) [Compound 90],Top1 inhibition compared with camptothecin (CPT),Topoisomerase-1 (Top1),equipotent
same,cytotoxicity against HCT 116 cells (rank),HCT 116 cells,most cytotoxic
same,cytotoxicity (in words),[3],moderate cytotoxicity in the micromolar range; also recorded: moderate cytotoxicity at micromolar range
COC(=O)c1cccc(CCc2cc(=O)c3c(O)c(OC)ccc3o2)c1 [Compound 160],antinociceptive action,[4],"successful in reducing nociception and inflammation; also recorded: The derivatives from V. negundo L. were able to reduce inflammation, and nociception, and could be used as a potential source of antinociceptive and anti-inflammatory candidates"
same,anti-inflammatory activity,[5],"successful in reducing nociception and inflammation; also recorded: The derivatives from V. negundo L. were able to reduce inflammation, and nociception, and could be used as a potential source of antinociceptive and anti-inflammatory candidates"
"COc1cc(C2c3cc(O)c(O)cc3C=C(C=O)C2COC2OC(CO)C(O)C(O)C2O)ccc1O (centres unmarked) [Compound 129, vitexnegheteroin E]",antioxidant activity,[6],antioxidant
same,inhibition of LPS-induced NO production,[7],inhibitory activities
"CC(=O)OC1CC(C)C(O)(CCC2=CC(=O)NC2)C2(C)CCCC(C)(C)C12 (centres unmarked) [Compound 55, vitexlactam C]",QR1 induction activity,[8],moderate results; also recorded: Compound 55 showed moderate result on NADP(H); quinone oxireductase type1 (QR1) induction activity
COc1ccc2oc(CC(O)c3cccc(C(=O)O)c3)cc(=O)c2c1O (centres unmarked) [Compound 161],antinociceptive action,[4],"successful in reducing nociception and inflammation; also recorded: The derivatives from V. negundo L. were able to reduce inflammation, and nociception, and could be used as a potential source of antinociceptive and anti-inflammatory candidates"
same,anti-inflammatory activity,[5],"successful in reducing nociception and inflammation; also recorded: The derivatives from V. negundo L. were able to reduce inflammation, and nociception, and could be used as a potential source of antinociceptive and anti-inflammatory candidates"
"CC(C)(O)CCC[C@](C)(O)C1CC[C@@]2(O)C3=CC(=O)[C@@H]4C[C@@H](O)[C@@H](O)C[C@]4(C)C3[C@H](O)C[C@]12C (some centres unmarked) [Compound 110, scabrasterone]",molting activity in the Musca bioassay,Musca,very weak molting activity
"C[C@@H]1CC[C@H]2C(C)(C)CCC[C@]2(C)[C@@]1(O)CCc1cc[nH]c1C#N [Compound 79, vitepyrroloid A]",IC50,[9],8.7 µM
"CC(=O)OC1CC(C)C(O)(CCC2=CC(=O)OC2)C2(C)CCCC(C)(C)C12 (centres unmarked) [Compound 95, vitexilactone D]",inhibition rates of NF-κB activation,[10],57.30 ± 15.70
"CC1=C(CCC2=CCOC2=O)[C@@]2(C)CC[C@H](O)C(C)(C)[C@@H]2CC1 [Compound 98, (3S,5R,10S)-3-hydroxy-labd-8,13-dien-16,15-olide]",inhibition of IL-1β level,[11],significant inhibition
same,inhibition of NF-κB signal pathways,NF-κB signal pathways,"able to inhibit; also recorded: inhibition on iNOS, COX-2 and NF-κB signal pathways"
same,inhibition of iNOS,[12],"able to inhibit; also recorded: inhibition on iNOS, COX-2 and NF-κB signal pathways"
same,inhibition of COX-2,COX-2,"able to inhibit; also recorded: inhibition on iNOS, COX-2 and NF-κB signal pathways"
same,inhibition of LPS-induced NO production (in words),[13],strong
same,IC50,"[13]; read-out: inhibition of NO production, IC50 value",15.8 µM
same,inhibition of IL-6 level,IL-6,significant inhibition
"O=C(OCC1=C[C@@H](O)[C@@H]2C=CO[C@@H](O[C@@H]3O[C@H](COC(=O)c4ccc(O)cc4)[C@@H](O)[C@H](O)[C@H]3O)[C@H]12)c1ccc(O)cc1 [Compound 21, 10-p-hydroxybenzoyl-6β-hydroxyiridoid 1-O-β-D-(6′-O-p-hydroxybenzoyl)glucopyranoside]",inhibition of NO production,NO production,did not inhibit; also recorded: No inhibitory activity on NO production
"CCOC1C=C(CCC2(O)C(C)CC(OC(C)=O)C3C(C)(C)CCCC32C)C(=O)O1 (centres unmarked) [Compound 94, viterotulin C]",inhibition rates of NF-κB activation,[10],66.09 ± 11.49
CC(C(=O)O)c1ccc(-c2ccccc2)c(F)c1 (centres unmarked) [flurbiprofen],symptoms of mastalgia,"cyclic mastalgia, premenopausal women, V. agnus-castus fruit 40 mg",significant reduction
same,harmful effects,in vivo,no harmful effects
"C[C@]1(O)CC[C@@H]2C(C(=O)O)=CO[C@@H](O[C@@H]3O[C@H](CO)[C@@H](O)[C@H](O)[C@H]3OC(=O)c3ccc(O)cc3)[C@@H]21 [Compound 1, 2-p-hydroxybenzoyl mussaenosidic acid]",protective effects against CCl4-induced toxicity in HuH-7 cells and oxidative stress,[14],Showed protective effects against CCl4-induced toxicity in HuH-7 cells and oxidative stress
"C=C1CC[C@@H]2C(C(=O)O)=CO[C@@H](O[C@@H]3O[C@H](COC(=O)c4ccc(O)cc4)[C@@H](O)[C@H](O)[C@H]3O)[C@H]12 [Compound 19, vitexnegheteroin K]",inhibitory effects on α-glucosidase,α-glucosidase,moderate inhibitory effects
same,IC50,[2],> 20 µM
"COc1cc(C2c3c(cc(OC)c(O)c3OC)C=C(C=O)C2COC2OC(CO)C(O)C(O)C2O)ccc1O (centres unmarked) [Compound 130, vitexnegheteroin F]",cytotoxic activity against HepG2 cell lines,[15],moderate cytotoxic activity; also recorded: Exhibited moderate cytotoxic activities against human liver carcinoma (HepG2) cell lines
"CC(C)(O)C(O)CC[C@](C)(O)[C@H]1CC[C@@]2(O)C3=CC(=O)[C@@H]4C[C@@H](O)[C@@H](O)C[C@]4(C)C3CC[C@]12C (some centres unmarked) [Compound 103, pinnatasterone]",activity against Musca domestica larvae,Musca domestica larvae,Exhibited weak activity against M. domestica larvae
COC1CC2(CCC3(O2)C(C)CC(OC(C)=O)C2C(C)(C)CCCC23C)C(OC)O1 (centres unmarked) [Compound 32],antioxidant activity,[16],did not exhibit any activities
"C[C@@H]1C[C@@H](O)C2C(C)(C)[C@@H](O[C@@H]3O[C@H](CO)[C@@H](O)[C@H](O)[C@H]3O)CC[C@]2(C)[C@@]1(O)CCC1=CCOC1=O (stereo partly drawn) [Compound 96, (3S,5S,6S,8R,9R,10S)-3,6,9-trihydroxy-13(14)-labdean-16,15-olide-3-O-β-D-gluco-pyranoside]",inhibitory effect on NO production (in words),[17],No inhibitory activity on NO production in LPS-induced RAW 264.7 macrophages up to concentration of 100 μM
"COc1cc([C@H]2c3c(cc(OC)c(O)c3OC)C=C(C=O)[C@@H]2CO)ccc1O [Compound 128, vitexdoin F]",DPPH radical-scavenging activity compared with ascorbic acid,[18],Exhibited stronger activity than ascorbic acid using DPPH radical-scavenging assays
